# Experimental data published in publication PMC7037732, “Synthesis of Combretastatin A-4 and 3′-Aminocombretastatin A-4 derivatives with Aminoacid Containing Pendants and Study of their Interaction with Tubulin and as Downregulators of the VEGF, hTERT and c-Myc Gene Expression” (Molecules, 2020).
# Tested on: A-549 cells
# Assay: Effect on the cellular microtubule network (immunofluorescence)
# Format: cell-based, human
# Procedure: The effect on the cellular microtubule network of CA-4 derivatives was studied for compounds 1, 3.7 (L-Thr-OMe), 3.8 (L-Tyr-OMe), 4.2 (L-Val) and 4.3 (L-Leu), which were those accumulating more cells in the G2/M phase. Thus, A-549 cells were incubated for 24 h in the presence of the above compounds and CA-4 at the concentrations indicated in Figure 4.
# The effect of some derivatives on the cellular microtubule network were also studied on A-549 cells. The selected compounds were 7.1 (Fmoc-Gly) (0.5 μM), 8.1 (Gly) (2 μM), 8.2 (L-Ala) (3 μM) and 10.1 (D-Val) (40 μM), which were those exerting a higher effect on the cell cycle.
# For immunofluorescence microscopy of the microtubule network, 10^6 cells were plated on cover glass and incubated with the different drugs. Cells were then fixed in 3.7% formaldehyde (in PBS pH 7.4) for 20 min at room temperature and permeabilized with PBS-Triton X-100 0.5% for 10 min at room temperature. Direct immunostaining was carried out for 2 h at room temperature with a primary FITC-conjugated anti-α-tubulin antibody (dilution 1:400 in PBS-BSA 1% from a 1 mg/mL solution; monoclonal antibody, clone DM1A; Sigma-Aldrich, Darmstadt, Germany.). Next, cells were incubated for 45 min at room temperature in darkness with secondary Alexa Fluor 488-conjugated antibodies (dilution 1:200 each from 1.5 mg/mL; Molecular Probe, France). Then, cells were washed in PBS and cover glasses were mounted with a drop of ProLong® antifade solution (Invitrogen). The cytoskeleton was imaged by a confocal laser scanning microscope (CLSM) Leica SP5 with a Leica inverted microscope, equipped with a Plan-Apochromat 63× oil immersion objective (NA = 1.4). Each image was recorded with the CLSM’s spectral mode selecting specific domains of the emission spectrum. The FITC fluorophore was excited at 488 nm with an argon laser, and its fluorescence emission was collected between 496 nm and 535 nm.
Compound,"Effect on the microtubule network (A-549, 0.5 μM)","Effect on the microtubule network (A-549, 24 h, 50 nM)",further results
COc1ccc(/C=C\c2cc(OC)c(OC)c(OC)c2)cc1NC(=O)CNC(=O)OCC1c2ccccc2-c2ccccc21 [Compound 7.1],almost total depolymerization of the microtubule network,,
"COc1ccc(/C=C\c2cc(OC)c(OC)c(OC)c2)cc1O [CA-4, combretastatin A-4]",,greatly depolymerizes microtubules,
COc1ccc(/C=C\c2cc(OC)c(OC)c(OC)c2)cc1NC(=O)CN [Compound 8.1],,,"Effect on the microtubule network (A-549, 2 μM): almost total depolymerization of the microtubule network"
COc1ccc(/C=C\c2cc(OC)c(OC)c(OC)c2)cc1NC(=O)[C@H](C)N [Compound 8.2],,,"Effect on the microtubule network (A-549, 3 μM): almost total depolymerization of the microtubule network"
"COc1ccc(/C=C\c2cc(OC)c(OC)c(OC)c2)cc1N [AmCA-4, 3′-aminocombretastatin A-4]",,total depolymerization of microtubules,
COc1ccc(/C=C\c2cc(OC)c(OC)c(OC)c2)cc1NC(=O)[C@@H](N)Cc1ccccc1 [Compound 8.5],much less active,,
